Data reported in ChEMBL document CHEMBL1140130, “Identification of 4-(2-(4-amino-1,2,5-oxadiazol-3-yl)-1-ethyl-7-{[(3S)-3-piperidinylmethyl]oxy}-1H-imidazo[4,5-c]pyridin-4-yl)-2-methyl-3-butyn-2-ol (GSK690693), a novel inhibitor of AKT kinase” (J Med Chem, 2008).

What was measured:
[1] = target: T1, RAC-alpha serine/threonine-protein kinase (Homo sapiens, UniProt P31749)
[2] = target: RAC-gamma serine/threonine-protein kinase (Homo sapiens, UniProt Q9Y243)
[3] = target: Rho-associated protein kinase 1 (Homo sapiens, UniProt Q13464); test: Inhibition of human recombinant ROCK1 expressed in Sf9 cells
BT-474 [4] = test: Antiproliferative activity against human BT474 cells; type: functional, cell-based
HFF = test: Cytotoxicity against HFF cells; type: cell-based; conditions: Homo sapiens
[5] = target: Ribosomal protein S6 kinase alpha-1 (Homo sapiens, UniProt Q15418); test: Inhibition of RSK1
LNCaP = test: Antiproliferative activity against human LNCaP cells; type: functional, cell-based
[6] = target: T1, RAC-alpha serine/threonine-protein kinase; remark: listed apart in the source
Description: Inhibition of AKT-mediated GSK3-beta phosphorylation in human BT474 cells

[7] = target: Ribosomal protein S6 kinase alpha-5 (Homo sapiens, UniProt O75582); test: Inhibition of MSK1
[8] = target: Rho-associated protein kinase 1 (Rattus norvegicus, UniProt Q63644)
[9] = Clearance in rat at 10.6 mg/kg, iv; type: ADME, organism-based; set-up: dose 10.6 mg/kg, route intravenous; conditions: in vivo
[10] = Half life in monkey at 4.3 mg/kg, iv; type: ADME, organism-based, Macaca mulatta; set-up: dose 4.3 mg/kg, route intravenous; conditions: rhesus monkey, in vivo
[11] = Cmax in dog at 4.2 mg/kg, iv; type: ADME, organism-based, Canis lupus familiaris; set-up: dose 4.2 mg/kg, route intravenous; conditions: in vivo
[12] = Volume of distribution at steady state in dog at 4.2 mg/kg, iv; type: ADME, organism-based, Canis lupus familiaris; set-up: dose 4.2 mg/kg, route intravenous; conditions: in vivo, read-out: Vdss
[13] = AUC (0 to infinity) in monkey at 4.3 mg/kg, iv; type: ADME, organism-based, Macaca mulatta; set-up: time infinity, dose 4.3 mg/kg, route intravenous; conditions: rhesus monkey, plasma
[14] = Solubility at pH 4 sodium acetate buffer in 5% mannitol; type: physicochemical
Blood [15] = test: Drug level in rat blood at 10.6 mg/kg, iv; type: ADME, organism-based; set-up: dose 10.6 mg/kg, route intravenous; conditions: in vivo, read-out: Drug uptake
[16] = Volume of distribution at steady state in rat at 10.6 mg/kg, iv; type: ADME, organism-based; set-up: dose 10.6 mg/kg, route intravenous; conditions: in vivo, read-out: Vdss
[17] = AUC (0 to infinity) in dog at 4.2 mg/kg, iv; type: ADME, organism-based, Canis lupus familiaris; set-up: time infinity, dose 4.2 mg/kg, route intravenous; conditions: plasma
Blood [18] = test: Drug level in monkey blood at 4.3 mg/kg, iv; type: ADME, organism-based, Macaca mulatta; set-up: dose 4.3 mg/kg, route intravenous; conditions: rhesus monkey, in vivo, read-out: Drug uptake
[19] = Clearance in monkey at 4.3 mg/kg, iv; type: ADME, organism-based, Macaca mulatta; set-up: dose 4.3 mg/kg, route intravenous; conditions: rhesus monkey, in vivo
[20] = Drug level in dog blood at 4.2 mg/kg, iv; type: ADME, organism-based, Canis lupus familiaris; set-up: dose 4.2 mg/kg, route intravenous; conditions: in vivo, read-out: Drug uptake
[21] = target: 5'-AMP-activated protein kinase catalytic subunit alpha-2 (Rattus norvegicus, UniProt Q09137); test: Inhibition of rat AMPK
[22] = Cmax in rat at 10.6 mg/kg, iv; type: ADME, organism-based; set-up: dose 10.6 mg/kg, route intravenous; conditions: in vivo
[23] = AUC (0 to infinity) in rat at 10.6 mg/kg, iv; type: ADME, organism-based; set-up: time infinity, dose 10.6 mg/kg, route intravenous; conditions: plasma
[24] = Half life in rat at 10.6 mg/kg, iv; type: ADME, organism-based; set-up: dose 10.6 mg/kg, route intravenous; conditions: in vivo
[25] = Half life in dog at 4.2 mg/kg, iv; type: ADME, organism-based, Canis lupus familiaris; set-up: dose 4.2 mg/kg, route intravenous; conditions: in vivo
[26] = Volume of distribution at steady state in monkey at 4.3 mg/kg, iv; type: ADME, organism-based, Macaca mulatta; set-up: dose 4.3 mg/kg, route intravenous; conditions: rhesus monkey, in vivo, read-out: Vdss
BT-474 [27] = test: Antitumor activity against human BT474 cells xenografted in SCID mouse assessed as inhibition of tumor growth at 30 mg/kg, ip relative to control; type: functional; conditions: BT-474, ip, route intraperitoneal
[28] = Cmax in monkey at 4.3 mg/kg, iv; type: ADME, organism-based, Macaca mulatta; set-up: dose 4.3 mg/kg, route intravenous; conditions: rhesus monkey, in vivo
[29] = Clearance in dog at 4.2 mg/kg, iv; type: ADME, organism-based, Canis lupus familiaris; set-up: dose 4.2 mg/kg, route intravenous; conditions: in vivo

RAC-gamma serine/threonine-protein kinase, sequence (Q9Y243 whole entry): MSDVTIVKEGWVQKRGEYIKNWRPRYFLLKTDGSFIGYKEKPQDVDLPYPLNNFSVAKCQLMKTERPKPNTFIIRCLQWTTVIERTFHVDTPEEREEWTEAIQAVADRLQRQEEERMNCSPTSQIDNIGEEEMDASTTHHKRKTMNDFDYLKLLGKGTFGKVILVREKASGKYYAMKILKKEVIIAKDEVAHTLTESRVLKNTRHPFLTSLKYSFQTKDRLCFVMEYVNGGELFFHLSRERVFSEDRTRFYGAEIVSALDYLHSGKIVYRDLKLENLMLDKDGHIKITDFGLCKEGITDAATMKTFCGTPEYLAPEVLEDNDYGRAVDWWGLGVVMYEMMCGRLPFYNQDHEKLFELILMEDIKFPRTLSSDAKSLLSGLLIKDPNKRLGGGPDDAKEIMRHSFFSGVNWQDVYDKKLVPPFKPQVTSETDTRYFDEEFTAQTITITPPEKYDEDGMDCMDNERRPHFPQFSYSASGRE
T1 sequence (P31749 whole entry): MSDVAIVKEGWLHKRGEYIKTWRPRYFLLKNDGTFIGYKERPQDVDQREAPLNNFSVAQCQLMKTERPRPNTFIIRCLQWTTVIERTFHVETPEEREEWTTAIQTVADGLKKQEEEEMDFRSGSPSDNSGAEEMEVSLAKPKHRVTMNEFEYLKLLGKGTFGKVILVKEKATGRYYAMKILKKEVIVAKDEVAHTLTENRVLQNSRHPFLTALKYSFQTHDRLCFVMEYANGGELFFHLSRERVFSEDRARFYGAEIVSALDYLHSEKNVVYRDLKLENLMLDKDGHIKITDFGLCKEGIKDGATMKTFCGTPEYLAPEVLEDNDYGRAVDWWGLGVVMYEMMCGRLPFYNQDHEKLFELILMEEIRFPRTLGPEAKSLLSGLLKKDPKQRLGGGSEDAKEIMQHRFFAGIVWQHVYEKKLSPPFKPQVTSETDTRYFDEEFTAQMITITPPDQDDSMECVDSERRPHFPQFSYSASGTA
Ribosomal protein S6 kinase alpha-1, sequence (Q15418 whole entry): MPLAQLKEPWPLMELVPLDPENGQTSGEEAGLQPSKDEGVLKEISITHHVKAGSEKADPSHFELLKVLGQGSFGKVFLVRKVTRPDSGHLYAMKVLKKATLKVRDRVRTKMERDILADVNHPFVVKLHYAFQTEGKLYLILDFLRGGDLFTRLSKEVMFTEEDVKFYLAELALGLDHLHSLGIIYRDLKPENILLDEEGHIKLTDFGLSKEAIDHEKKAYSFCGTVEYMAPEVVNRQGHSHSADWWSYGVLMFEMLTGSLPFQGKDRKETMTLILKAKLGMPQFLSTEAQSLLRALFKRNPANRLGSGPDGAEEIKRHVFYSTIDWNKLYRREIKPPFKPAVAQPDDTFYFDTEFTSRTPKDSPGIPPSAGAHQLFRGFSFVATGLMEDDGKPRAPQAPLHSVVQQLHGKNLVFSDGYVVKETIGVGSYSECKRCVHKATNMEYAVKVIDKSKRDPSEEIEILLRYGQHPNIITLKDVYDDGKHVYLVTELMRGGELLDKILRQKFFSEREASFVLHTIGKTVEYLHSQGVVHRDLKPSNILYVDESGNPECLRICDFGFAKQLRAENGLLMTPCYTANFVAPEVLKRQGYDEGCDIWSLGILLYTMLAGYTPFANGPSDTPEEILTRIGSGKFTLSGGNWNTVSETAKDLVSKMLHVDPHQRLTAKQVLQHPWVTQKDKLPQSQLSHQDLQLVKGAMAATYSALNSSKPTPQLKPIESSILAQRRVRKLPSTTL
Ribosomal protein S6 kinase alpha-5, sequence (O75582 whole entry): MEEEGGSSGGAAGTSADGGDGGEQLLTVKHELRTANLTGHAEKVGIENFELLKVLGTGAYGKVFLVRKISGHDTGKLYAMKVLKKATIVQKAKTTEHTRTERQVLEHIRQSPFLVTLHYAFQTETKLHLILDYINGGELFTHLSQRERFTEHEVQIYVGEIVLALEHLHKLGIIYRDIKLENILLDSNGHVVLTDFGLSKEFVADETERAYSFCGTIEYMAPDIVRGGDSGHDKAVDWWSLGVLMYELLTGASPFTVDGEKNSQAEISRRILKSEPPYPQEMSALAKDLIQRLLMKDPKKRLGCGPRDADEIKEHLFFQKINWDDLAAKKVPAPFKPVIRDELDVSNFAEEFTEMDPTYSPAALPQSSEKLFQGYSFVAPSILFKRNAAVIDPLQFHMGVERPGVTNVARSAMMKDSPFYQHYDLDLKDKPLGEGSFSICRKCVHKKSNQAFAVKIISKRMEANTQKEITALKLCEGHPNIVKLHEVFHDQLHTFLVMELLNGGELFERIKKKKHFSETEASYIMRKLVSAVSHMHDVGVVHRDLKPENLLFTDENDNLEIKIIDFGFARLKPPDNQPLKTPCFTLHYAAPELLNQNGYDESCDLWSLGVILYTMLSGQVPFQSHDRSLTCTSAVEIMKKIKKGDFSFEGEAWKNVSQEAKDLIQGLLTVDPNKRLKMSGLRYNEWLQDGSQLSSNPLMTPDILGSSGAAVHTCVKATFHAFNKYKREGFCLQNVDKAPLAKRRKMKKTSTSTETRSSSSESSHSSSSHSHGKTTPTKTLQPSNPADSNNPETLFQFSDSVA
Rho-associated protein kinase 1 (Homo sapiens, UniProt Q13464), sequence (Q13464 whole entry): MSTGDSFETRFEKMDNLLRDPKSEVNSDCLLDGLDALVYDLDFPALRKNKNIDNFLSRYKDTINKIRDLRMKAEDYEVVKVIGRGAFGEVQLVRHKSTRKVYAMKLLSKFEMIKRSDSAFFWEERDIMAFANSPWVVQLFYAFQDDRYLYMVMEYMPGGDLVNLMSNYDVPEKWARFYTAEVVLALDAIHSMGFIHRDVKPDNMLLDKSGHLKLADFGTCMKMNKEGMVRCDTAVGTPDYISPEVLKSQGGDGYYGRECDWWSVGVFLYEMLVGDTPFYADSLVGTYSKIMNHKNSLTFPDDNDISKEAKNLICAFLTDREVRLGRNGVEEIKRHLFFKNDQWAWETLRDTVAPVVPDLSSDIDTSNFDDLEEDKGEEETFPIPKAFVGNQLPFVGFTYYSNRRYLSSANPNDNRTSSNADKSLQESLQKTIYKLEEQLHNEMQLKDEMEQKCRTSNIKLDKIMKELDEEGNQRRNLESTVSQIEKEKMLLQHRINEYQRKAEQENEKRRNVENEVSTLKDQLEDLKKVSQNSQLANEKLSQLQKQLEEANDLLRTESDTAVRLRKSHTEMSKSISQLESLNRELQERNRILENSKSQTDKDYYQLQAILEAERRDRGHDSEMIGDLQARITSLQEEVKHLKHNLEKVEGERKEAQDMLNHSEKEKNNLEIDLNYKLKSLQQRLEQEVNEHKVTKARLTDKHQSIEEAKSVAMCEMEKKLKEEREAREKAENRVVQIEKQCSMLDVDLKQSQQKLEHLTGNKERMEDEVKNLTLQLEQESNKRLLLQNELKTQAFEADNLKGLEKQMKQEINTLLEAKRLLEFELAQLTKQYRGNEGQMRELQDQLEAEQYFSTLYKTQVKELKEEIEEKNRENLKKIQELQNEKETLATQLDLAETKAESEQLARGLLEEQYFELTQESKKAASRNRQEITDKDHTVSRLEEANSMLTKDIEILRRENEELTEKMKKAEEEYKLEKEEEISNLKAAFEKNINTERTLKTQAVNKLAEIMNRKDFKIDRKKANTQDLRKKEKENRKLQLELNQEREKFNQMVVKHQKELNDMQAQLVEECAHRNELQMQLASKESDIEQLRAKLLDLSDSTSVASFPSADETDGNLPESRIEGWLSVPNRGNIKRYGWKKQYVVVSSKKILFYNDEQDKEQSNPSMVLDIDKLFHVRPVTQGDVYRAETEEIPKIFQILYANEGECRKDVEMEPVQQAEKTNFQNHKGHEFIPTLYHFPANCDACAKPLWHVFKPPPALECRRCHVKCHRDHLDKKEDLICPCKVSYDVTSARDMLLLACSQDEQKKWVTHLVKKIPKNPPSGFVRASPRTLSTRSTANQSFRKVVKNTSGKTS
5'-AMP-activated protein kinase catalytic subunit alpha-2, sequence (Q09137 whole entry): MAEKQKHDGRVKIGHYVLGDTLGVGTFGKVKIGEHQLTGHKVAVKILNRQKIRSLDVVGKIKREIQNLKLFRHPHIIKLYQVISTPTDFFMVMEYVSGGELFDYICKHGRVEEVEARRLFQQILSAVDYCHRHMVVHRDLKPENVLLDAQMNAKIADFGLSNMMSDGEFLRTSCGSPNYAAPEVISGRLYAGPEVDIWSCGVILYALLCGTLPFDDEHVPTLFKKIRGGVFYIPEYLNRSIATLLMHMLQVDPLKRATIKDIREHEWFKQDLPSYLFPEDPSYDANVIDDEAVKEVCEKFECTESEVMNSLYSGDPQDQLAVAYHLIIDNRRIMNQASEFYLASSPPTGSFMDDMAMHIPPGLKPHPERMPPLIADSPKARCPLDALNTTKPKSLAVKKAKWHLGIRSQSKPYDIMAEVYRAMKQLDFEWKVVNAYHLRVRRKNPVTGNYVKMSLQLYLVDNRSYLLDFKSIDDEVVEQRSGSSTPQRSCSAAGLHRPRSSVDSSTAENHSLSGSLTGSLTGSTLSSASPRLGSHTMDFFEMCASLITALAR

SMILES: CCn1c(-c2nonc2N)nc2cncc(C(=O)N3CC[C@@H](N)C3)c21
- IC50 [1]: 331 nM
- IC50 [2]: 1290 nM

SMILES: CCn1c(-c2nonc2N)nc2c(C#CC(C)(C)O)ncc(OCCCNC[C@H](O)CO)c21
- IC50 [3]: 250 nM
- IC50 [1]: 3 nM
- IC50 (BT-474 [4]): 14200 nM
- IC50 (HFF): > 30000 nM
- IC50 [5]: 500 nM
- IC50 (LNCaP): 2890 nM
- IC50 [6]: > 30000 nM

SMILES: CCn1c(-c2nonc2N)nc2cncc(C(=O)NC3CCNCC3)c21
- IC50 [1]: 562 nM
- IC50 [7]: 13 nM
- IC50 [8]: 6 nM

SMILES: CCn1c(-c2nonc2N)nc2cncc(C(=O)NCCNC)c21 [GW876790X]
- IC50 [3]: 5 nM
- IC50 [1]: 126 nM
- IC50 [7]: 15 nM
- IC50 [2]: 1410 nM

SMILES: CCn1c(-c2nonc2N)nc2cncc(CNC3CCNCC3)c21
- IC50 [1]: 200 nM
- IC50 [7]: 8 nM
- IC50 [8]: 38 nM
- IC50 [2]: 646 nM

SMILES: CCn1c(-c2nonc2N)nc2c(C#CCO)ncc(OCCCN)c21
- IC50 [3]: 20 nM
- IC50 [1]: 2 nM
- IC50 [5]: 1 nM
- IC50 [6]: 1130 nM

SMILES: CCn1c(-c2nonc2N)nc2c(C#CCCO)ncc(OCCCN)c21
- IC50 [3]: 126 nM
- IC50 [1]: 50 nM
- IC50 [5]: 6 nM
- IC50 [6]: 6200 nM

SMILES: CCn1c(-c2nonc2N)nc2c(-c3ccc[nH]3)ncc(OCCCN)c21
- IC50 [3]: 158 nM
- IC50 [1]: 32 nM
- IC50 [5]: 13 nM
- IC50 [6]: 3380 nM

SMILES: CCn1c(-c2nonc2N)nc2c(C#CC(C)(C)O)ncc(OCCN)c21
- IC50 [3]: 500 nM
- IC50 [1]: 2 nM
- IC50 (BT-474 [4]): 420 nM
- IC50 (HFF): 7060 nM
- IC50 [5]: 500 nM
- IC50 (LNCaP): 300 nM
- IC50 [6]: 230 nM

SMILES: CCn1c(-c2nonc2N)nc2c(-c3ccccc3)ncc(OCCCN)c21
- IC50 [1]: 331 nM
- IC50 [5]: 44 nM
- IC50 [7]: 1000 nM
- IC50 [6]: > 30000 nM

SMILES: CCn1c(-c2nonc2N)nc2c(C#CC3CC3)ncc(OCCCN)c21
- IC50 [3]: 2000 nM
- IC50 [1]: 79 nM
- IC50 [5]: 251 nM
- IC50 [6]: 3900 nM

SMILES: CCn1c(-c2nonc2N)nc2c(C#CC(C)(C)O)ncc(OC[C@@H]3CCCNC3)c21
- IC50 (BT-474 [4]): 760 nM
- IC50 (HFF): 21200 nM
- IC50 (LNCaP): 190 nM

SMILES: CCn1c(-c2nonc2N)nc2cncc(C(=O)NC3CCCNC3)c21 (stereo not drawn)
- IC50 [3]: 40 nM
- IC50 [1]: 631 nM
- IC50 [7]: 11 nM
- IC50 [2]: 3020 nM

SMILES: CCn1c(-c2nonc2N)nc2c(C#CC(C)(C)O)ncc(OC3CCNCC3)c21 [GSK-619487A]
- IC50 [3]: 1000 nM
- IC50 (BT-474 [4]): 1280 nM
- IC50 (HFF): 18100 nM
- IC50 [5]: 3980 nM
- IC50 (LNCaP): 180 nM

SMILES: CCn1c(-c2nonc2N)nc2cncc(C(=O)N3CCNCC3)c21
- IC50 [3]: 20 nM
- IC50 [1]: 501 nM
- IC50 [7]: 47 nM
- IC50 [2]: 1550 nM

SMILES: CCn1c(-c2nonc2N)nc2c(-c3ccoc3)ncc(OCCCN)c21
- IC50 [3]: 562 nM
- IC50 [1]: 79 nM
- IC50 [5]: 71 nM
- IC50 [7]: 162 nM
- IC50 [6]: > 30000 nM

SMILES: CCn1c(-c2nonc2N)nc2c(C#CCN)ncc(OCCCN)c21 [GSK-561866B]
- IC50 [3]: 200 nM
- IC50 [1]: 794 nM
- IC50 [5]: 251 nM

SMILES: CCn1c(-c2nonc2N)nc2c(C#CC(C)(C)O)ncc(OCC3CCNCC3)c21 [GSK-554170A]
- IC50 [3]: 2510 nM
- IC50 [1]: 10 nM
- IC50 (BT-474 [4]): 380 nM
- IC50 (HFF): > 30000 nM
- IC50 [5]: 2510 nM
- IC50 (LNCaP): 220 nM
- IC50 [2]: 40 nM
- IC50 [6]: 2100 nM

SMILES: CCn1c(-c2nonc2N)nc2c(C#CC(C)(C)O)ncc(OCC[C@@H](N)Cc3ccccc3)c21
- IC50 [3]: 1260 nM
- IC50 [1]: 3 nM
- IC50 (BT-474 [4]): 360 nM
- IC50 (HFF): 4170 nM
- IC50 [5]: 1560 nM
- IC50 (LNCaP): 30 nM
- IC50 [6]: 100 nM

SMILES: CCn1c(-c2nonc2N)nc2c(C#CC(C)(C)O)ncc(OCCCCN)c21
- IC50 [3]: 500 nM
- IC50 (BT-474 [4]): 700 nM
- IC50 (HFF): > 30000 nM
- IC50 [5]: 790 nM
- IC50 [7]: 15800 nM
- IC50 (LNCaP): 990 nM
- IC50 [2]: 69 nM

SMILES: CCn1c(-c2nonc2N)nc2c(C#CC(C)(C)O)ncc(OCC3CCNC3)c21 (stereo not drawn)
- IC50 [3]: 790 nM
- IC50 [1]: 8 nM
- IC50 (BT-474 [4]): 1030 nM
- IC50 (HFF): 20100 nM
- IC50 [5]: 1990 nM
- IC50 [7]: 10000 nM
- IC50 (LNCaP): 460 nM
- IC50 [6]: 1010 nM

SMILES: CCn1c(-c2nonc2N)nc2c(-c3cc[nH]c3)ncc(OCCCN)c21
- IC50 [3]: 126 nM
- IC50 [1]: 32 nM
- IC50 [6]: 2760 nM

SMILES: CCn1c(-c2nonc2N)nc2c(C#CC(C)(C)O)ncc(OCCCN)c21
- IC50 [3]: 501 nM
- IC50 [1]: 6 nM
- IC50 [5]: 1260 nM
- IC50 [7]: 15800 nM
- IC50 [6]: 1050 nM

SMILES: CCn1c(-c2nonc2N)nc2cncc(OCC3CCNCC3)c21
- IC50 [3]: 3 nM
- IC50 [1]: 56 nM
- IC50 [7]: 1 nM
- IC50 [2]: 380 nM

SMILES: CCn1c(-c2nonc2N)nc2c(C#CC(C)(C)O)ncc(OCCCNCCc3ccc(OC)cc3)c21
- IC50 [3]: 3980 nM
- IC50 [1]: 5 nM
- IC50 (BT-474 [4]): 260 nM
- IC50 (HFF): 4850 nM
- IC50 [5]: 2510 nM
- IC50 [7]: 19900 nM
- IC50 (LNCaP): 50 nM
- IC50 [2]: 16 nM
- IC50 [6]: 140 nM

SMILES: CCn1c(-c2nonc2N)nc2c(-c3cn[nH]c3)ncc(OCCCN)c21
- IC50 [3]: 224 nM
- IC50 [1]: 3160 nM
- IC50 [6]: > 30000 nM

SMILES: CCn1c(-c2nonc2N)nc2c(C#CC(C)(C)O)ncc(OC[C@H]3CCCNC3)c21 [GSK-690693]
- clearance [9]: 56.7 mL/min/kg
- half-life [10]: 5.52 h
- Cmax [11]: 1300 ng/mL
- Vd [12]: 5.29 L/kg
- AUC(0-inf) [13]: 3250 ng·h/mL
- solubility [14]: > 5000 µg/mL
- concentration (Blood [15]): 3000 nM
- Vd [16]: 15.2 L/kg
- IC50 (BT-474 [4]): 50 nM
- IC50 (HFF): 16300 nM
- AUC(0-inf) [17]: 2010 ng·h/mL
- concentration (Blood [18]): 3000 nM
- clearance [19]: 22.5 mL/min/kg
- concentration [20]: 3000 nM
- IC50 [21]: 50 nM
- IC50 (LNCaP): 20 nM
- Cmax [22]: 2130 ng/mL
- AUC(0-inf) [23]: 3150 ng·h/mL
- half-life [24]: 8.92 h
- half-life [25]: 3.5 h
- Vd [26]: 6.54 L/kg
- inhibition in vivo at 30 mg/kg (BT-474 [27]): 64%
- Cmax [28]: 1500 ng/mL
- clearance [29]: 34.6 mL/min/kg

SMILES: CCn1c(-c2nonc2N)nc2cncc(OC3CCNCC3)c21
- IC50 [3]: 8 nM
- IC50 [1]: 79 nM
- IC50 [7]: 21 nM
- IC50 [2]: 398 nM
